Measured values from article PMC12051620, “Molecular basis underlying the specificity of an antagonist AA92593 for mammalian melanopsins” (The Journal of Biological Chemistry, 2025).

Target: T1, mouse melanopsin F94^2.61C/S188^ECL2T/S269^6.52A mutant (Mus musculus, UniProt Q9QXZ9, F126C/S221T/S310A)
T1 construct: expressed in transfected cells; host or cells: COS-1
Assay: NanoBiT Gq dissociation assay
Assay type: cell-based
Settings: 1.67 and 16.7 μM AA92593; COS-1 cells
Description: As described above, we have assessed the inhibitory effect of AA92593 using the GsX GloSensor assay. To confirm whether an antagonistic effect could be observed in another experimental system, we used the NanoBiT G protein dissociation assay ([23]). In this assay, Gq activation (dissociation) is detected as a decrease in NanoLuc luminescence from the Lg-BiT fragment inserted with Gqα and the Sm-BiT fragment fused with Gβγ (see “Experimental procedures”) ([23], [24]). If an antagonistic effect is observed in the NanoBiT assay, the light-dependent decrease in luminescence (Gq dissociation) by melanopsin would be reduced in the presence of AA92593. […]
For GloSensor assay, opsins, GloSensor assay sensor (coded by pGlo-22F), and NanoBiT-tagged G proteins were transiently expressed in COS-1 cells (kindly provided from Dr David Farrens, Oregon Health and Science University) using PEI as described previously ([24], [52]). […] For GFP-fluorescence microscopy, a 35-mm cell culture dish (IWAKI) was transfected with 2 μg melanopsin-GFP plasmid and 8 μg PEI in 400 μl Opti-mem and 1.2 ml D-MEM. […]
The transfected COS-1 cells were incubated at 37 °C, 5% CO2 for 1 day, and the medium was aspirated, followed by the addition of 50 μl of HBSS containing 33.3, 3.33, or 0 μM AA92593, 0.5% DMSO, and 10 μM coelenterazine h (Wako). […] Luminescence was measured using GM-2000 or GM-3510 microplate reader (Promega). […]

T1 sequence (Q9QXZ9 1-381 F126C/S221T/S310A): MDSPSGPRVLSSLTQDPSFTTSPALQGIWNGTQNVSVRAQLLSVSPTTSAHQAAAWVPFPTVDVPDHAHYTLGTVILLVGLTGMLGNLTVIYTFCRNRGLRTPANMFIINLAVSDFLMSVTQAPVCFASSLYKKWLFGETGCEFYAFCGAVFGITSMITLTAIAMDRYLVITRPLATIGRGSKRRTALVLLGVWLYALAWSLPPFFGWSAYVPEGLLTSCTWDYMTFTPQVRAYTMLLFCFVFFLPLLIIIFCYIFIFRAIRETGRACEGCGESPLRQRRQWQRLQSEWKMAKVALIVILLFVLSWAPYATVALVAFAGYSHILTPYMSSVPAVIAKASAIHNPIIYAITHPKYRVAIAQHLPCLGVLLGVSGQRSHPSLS

COc1ccc(S(=O)(=O)N2CCCCC2)cc1C [AA92593]
antagonistic effect on Gq activation compared to WT: similarly reduced
